{
  "source": "patent US6737383B1",
  "about": "“Herbicidal oxadiazolidines” (priority 1999, dated 2004)",
  "key": {"bedstraw": {"system": "bedstraw", "assay": "Test B pre/postemergence bedstraw", "type": "in vivo, Galium aparine", "conditions": "Preemergence", "method_in_brief": "(§1)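 Herbicidal effect was estimated by eye on a ten-point control scale after plants spent twelve to sixteen days in a greenhouse following soil or foliar treatment. Foliar sprays targeted plants at one to four leaves; all doses were formulated in a non-phytotoxic solvent with surfactant.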"}, "blackgrass": {"system": "blackgrass", "assay": "Test B pre/postemergence blackgrass", "type": "in vivo, Alopecurus myosuroides", "conditions": "Preemergence", "method_in_brief": "as §1"}, "surinam grass": {"system": "surinam grass", "assay": "Test B pre/postemergence surinam grass", "type": "in vivo, Brachiaria decumbens", "conditions": "Preemergence", "method_in_brief": "as §1"}, "cocklebur": {"system": "cocklebur", "assay": "Test B pre/postemergence cocklebur", "type": "in vivo, Xanthium strumarium", "conditions": "Preemergence", "method_in_brief": "as §1"}, "corn": {"system": "corn", "assay": "Test B pre/postemergence corn", "type": "in vivo, Zea mays", "conditions": "Preemergence", "method_in_brief": "as §1"}, "crabgrass": {"system": "crabgrass", "assay": "Test B pre/postemergence crabgrass", "type": "in vivo, Digitaria sanguinalis", "conditions": "Preemergence", "method_in_brief": "as §1"}, "giant foxtail": {"system": "giant foxtail", "assay": "Test B pre/postemergence giant foxtail", "type": "in vivo, Setaria faberii", "conditions": "Preemergence", "method_in_brief": "as §1"}, "morningglory": {"system": "morningglory", "assay": "Test B pre/postemergence morningglory", "type": "in vivo, Ipomoea hederacea", "conditions": "Preemergence", "method_in_brief": "as §1"}, "pigweed": {"system": "pigweed", "assay": "Test B pre/postemergence pigweed", "type": "in vivo, Amaranthus retroflexus", "conditions": "Preemergence", "method_in_brief": "as §1"}, "rape": {"system": "rape", "assay": "Test B pre/postemergence rape", "type": "in vivo, Brassica napus", "conditions": "Preemergence", "method_in_brief": "as §1"}, "soybean": {"system": "soybean", "assay": "Test B pre/postemergence soybean", "type": "in vivo, Glycine max", "conditions": "Preemergence", "method_in_brief": "as §1"}, "sugar beet": {"system": "sugar beet", "assay": "Test B pre/postemergence sugar beet", "type": "in vivo, Beta vulgaris", "conditions": "Preemergence", "method_in_brief": "as §1"}, "velvetleaf": {"system": "velvetleaf", "assay": "Test B pre/postemergence velvetleaf", "type": "in vivo, Abutilon theophrasti", "conditions": "Preemergence", "method_in_brief": "as §1"}, "wheat": {"system": "wheat", "assay": "Test B pre/postemergence wheat", "type": "in vivo, Triticum aestivum", "conditions": "Preemergence", "method_in_brief": "as §1"}, "wild oat": {"system": "wild oat", "assay": "Test B pre/postemergence wild oat", "type": "in vivo, Avena fatua", "conditions": "Preemergence", "method_in_brief": "as §1"}, "purple nutsedge": {"system": "purple nutsedge", "assay": "Test B pre/postemergence purple nutsedge", "type": "in vivo, Cyperus rotundus", "conditions": "Preemergence", "method_in_brief": "as §1"}, "rice": {"system": "rice", "assay": "Test B flood test rice", "type": "in vivo, Oryza sativa", "method_in_brief": "(§2)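 Read-out is a visual response score from 0 (no effect) to 10 (complete control), assigned by comparison with untreated controls. Treatment was applied at the 2-leaf stage, and plants stayed in the greenhouse for twelve to sixteen days before scoring.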"}, "smallflower flatsedge": {"system": "smallflower flatsedge", "assay": "Test B flood test smallflower flatsedge", "type": "in vivo, Cyperus difformis", "method_in_brief": "as §2"}, "duck salad": {"system": "duck salad", "assay": "Test B flood test duck salad", "type": "in vivo, Heteranthera limosa", "method_in_brief": "as §2"}, "bamyardgrass": {"system": "bamyardgrass", "assay": "Test B flood test barnyardgrass", "type": "in vivo, Echinochloa crus-galli", "method_in_brief": "as §2"}, "[1]": {"conditions": "Rate 62 g/ha, scale of 0 to 10 where 0 is no effect and 10 is complete control"}, "[2]": {"conditions": "Rate 125 g/ha, scale of 0 to 10 where 0 is no effect and 10 is complete control"}, "[3]": {"conditions": "Rate 250 g/ha, scale 0 (no effect) to 10 (complete control)"}, "[4]": {"conditions": "Rate 500 g/ha, scale 0 to 10 (0 no effect, 10 complete control)"}, "[5]": {"conditions": "Pre-emergence, Rate 62 g/ha, scale 0 to 10, 0 is no effect, 10 is complete control"}, "[6]": {"conditions": "Rate 125 g/ha, Pre-emergence section (flood test species), scale 0 to 10, 0 no effect, 10 complete control"}, "[7]": {"conditions": "Rate 250 g/ha, Pre-emergence (flood test species), scale 0 to 10, 0 is no effect, 10 is complete control"}, "[8]": {"conditions": "Rate 500 g/ha, Pre-emergence section of Table B, 0 to 10 scale (0 no effect, 10 complete control)"}},
  "data": [
    {"smiles": "CC(C)N(C(=O)n1oc(=O)n(C(C)C2=NOCC2)c1=O)c1ccc(F)cc1", "note": "(racemic) [Compound 721]", "values": [
      {"measurement": "Bedstraw plant response rating", "setting": "bedstraw; [1]", "result": 3},
      {"measurement": "Plant response rating, Bedstraw", "setting": "bedstraw; [2]", "result": 10},
      {"measurement": "Bedstraw plant response rating", "setting": "bedstraw; [3]", "result": 10},
      {"measurement": "Bedstraw plant response rating", "setting": "bedstraw; [4]", "result": 10},
      {"measurement": "Blackgrass plant response rating", "setting": "blackgrass; [1]", "result": 9},
      {"measurement": "Plant response rating, Blackgrass", "setting": "blackgrass; [2]", "result": 10},
      {"measurement": "Blackgrass plant response rating", "setting": "blackgrass; [3]", "result": 10},
      {"measurement": "Blackgrass plant response rating", "setting": "blackgrass; [4]", "result": 10},
      {"measurement": "B. signalgrass plant response rating", "setting": "surinam grass; [1]", "result": 7},
      {"measurement": "Plant response rating, B. signalgrass", "setting": "surinam grass; [2]", "result": 8},
      {"measurement": "B. signalgrass plant response rating", "setting": "surinam grass; [3]", "result": 8},
      {"measurement": "B. signalgrass plant response rating", "setting": "surinam grass; [4]", "result": 10},
      {"measurement": "Cocklebur plant response rating", "setting": "cocklebur; [1]", "result": 0},
      {"measurement": "Plant response rating, Cocklebur", "setting": "cocklebur; [2]", "result": 0},
      {"measurement": "Cocklebur plant response rating", "setting": "cocklebur; [3]", "result": 2},
      {"measurement": "Cocklebur plant response rating", "setting": "cocklebur; [4]", "result": 2},
      {"measurement": "Corn plant response rating", "setting": "corn; [1]", "result": 0},
      {"measurement": "Plant response rating, Corn", "setting": "corn; [2]", "result": 3},
      {"measurement": "Corn plant response rating", "setting": "corn; [3]", "result": 5},
      {"measurement": "Corn plant response rating", "setting": "corn; [4]", "result": 8},
      {"measurement": "Crabgrass plant response rating", "setting": "crabgrass; [1]", "result": 9},
      {"measurement": "Plant response rating, Crabgrass", "setting": "crabgrass; [2]", "result": 9},
      {"measurement": "Crabgrass plant response rating", "setting": "crabgrass; [3]", "result": 9},
      {"measurement": "Crabgrass plant response rating", "setting": "crabgrass; [4]", "result": 9},
      {"measurement": "Giant foxtail plant response rating", "setting": "giant foxtail; [1]", "result": 9},
      {"measurement": "Plant response rating, Giant foxtail", "setting": "giant foxtail; [2]", "result": 10},
      {"measurement": "Giant foxtail plant response rating", "setting": "giant foxtail; [3]", "result": 10},
      {"measurement": "Giant foxtail plant response rating", "setting": "giant foxtail; [4]", "result": 10},
      {"measurement": "Morningglory plant response rating", "setting": "morningglory; [1]", "result": 1},
      {"measurement": "Plant response rating, Morningglory", "setting": "morningglory; [2]", "result": 2},
      {"measurement": "Morningglory plant response rating", "setting": "morningglory; [3]", "result": 2},
      {"measurement": "Morningglory plant response rating", "setting": "morningglory; [4]", "result": 5},
      {"measurement": "Redroot pigweed plant response rating", "setting": "pigweed; [1]", "result": 9},
      {"measurement": "Plant response rating, Redroot pigweed", "setting": "pigweed; [2]", "result": 10},
      {"measurement": "Redroot pigweed plant response rating", "setting": "pigweed; [3]", "result": 10},
      {"measurement": "Redroot pigweed plant response rating", "setting": "pigweed; [4]", "result": 10},
      {"measurement": "Rape plant response rating", "setting": "rape; [1]", "result": 1},
      {"measurement": "Plant response rating, Rape", "setting": "rape; [2]", "result": 9},
      {"measurement": "Rape plant response rating", "setting": "rape; [3]", "result": 9},
      {"measurement": "Rape plant response rating", "setting": "rape; [4]", "result": 10},
      {"measurement": "Soybean plant response rating", "setting": "soybean; [1]", "result": 0},
      {"measurement": "Plant response rating, Soybean", "setting": "soybean; [2]", "result": 0},
      {"measurement": "Soybean plant response rating", "setting": "soybean; [3]", "result": 0},
      {"measurement": "Soybean plant response rating", "setting": "soybean; [4]", "result": 7},
      {"measurement": "Sugarbeets plant response rating", "setting": "sugar beet; [1]", "result": 3},
      {"measurement": "Plant response rating, Sugarbeets", "setting": "sugar beet; [2]", "result": 7},
      {"measurement": "Sugarbeets plant response rating", "setting": "sugar beet; [3]", "result": 7},
      {"measurement": "Sugarbeets plant response rating", "setting": "sugar beet; [4]", "result": 8},
      {"measurement": "Velvetleaf plant response rating", "setting": "velvetleaf; [1]", "result": 0},
      {"measurement": "Plant response rating, Velvetleaf", "setting": "velvetleaf; [2]", "result": 5},
      {"measurement": "Velvetleaf plant response rating", "setting": "velvetleaf; [3]", "result": 8},
      {"measurement": "Velvetleaf plant response rating", "setting": "velvetleaf; [4]", "result": 10},
      {"measurement": "Wheat plant response rating", "setting": "wheat; [1]", "result": 0},
      {"measurement": "Plant response rating, Wheat", "setting": "wheat; [2]", "result": 3},
      {"measurement": "Wheat plant response rating", "setting": "wheat; [3]", "result": 3},
      {"measurement": "Wheat plant response rating", "setting": "wheat; [4]", "result": 8},
      {"measurement": "Wild oats plant response rating", "setting": "wild oat; [1]", "result": 6},
      {"measurement": "Plant response rating, Wild oats", "setting": "wild oat; [2]", "result": 8},
      {"measurement": "Wild oats plant response rating", "setting": "wild oat; [3]", "result": 8},
      {"measurement": "Wild oats plant response rating", "setting": "wild oat; [4]", "result": 10},
      {"measurement": "Nutsedge plant response rating", "setting": "purple nutsedge; [1]", "result": 0},
      {"measurement": "Plant response rating, Nutsedge", "setting": "purple nutsedge; [2]", "result": 0},
      {"measurement": "Nutsedge plant response rating", "setting": "purple nutsedge; [3]", "result": 0},
      {"measurement": "Nutsedge plant response rating", "setting": "purple nutsedge; [4]", "result": 3},
      {"measurement": "Rice plant response rating", "setting": "rice; [5]", "result": 0},
      {"measurement": "Rice plant response rating", "setting": "rice; [6]", "result": 0},
      {"measurement": "Rice plant response rating", "setting": "rice; [7]", "result": 0},
      {"measurement": "Rice plant response rating", "setting": "rice; [8]", "result": 0},
      {"measurement": "S. Flatsedge plant response rating", "setting": "smallflower flatsedge; [5]", "result": 0},
      {"measurement": "S. Flatsedge plant response rating", "setting": "smallflower flatsedge; [6]", "result": 0},
      {"measurement": "S. Flatsedge plant response rating", "setting": "smallflower flatsedge; [7]", "result": 0},
      {"measurement": "S. Flatsedge plant response rating", "setting": "smallflower flatsedge; [8]", "result": 0},
      {"measurement": "Ducksalad plant response rating", "setting": "duck salad; [5]", "result": 0},
      {"measurement": "Ducksalad plant response rating", "setting": "duck salad; [6]", "result": 0},
      {"measurement": "Ducksalad plant response rating", "setting": "duck salad; [7]", "result": 0},
      {"measurement": "Ducksalad plant response rating", "setting": "duck salad; [8]", "result": 0},
      {"measurement": "Barnyardgrass plant response rating", "setting": "bamyardgrass; [5]", "result": 0},
      {"measurement": "Barnyardgrass plant response rating", "setting": "bamyardgrass; [6]", "result": 0},
      {"measurement": "Barnyardgrass plant response rating", "setting": "bamyardgrass; [7]", "result": 0},
      {"measurement": "Barnyardgrass plant response rating", "setting": "bamyardgrass; [8]", "result": 0}
    ]}
  ]
}
